13 compounds from patent US20250206730A1 (AUTOTELIC BIO INC., priority 2022, published 2025) can be followed below.

In general, IC50 refers to the midpoint of a concentration-inhibition curve.

One assay addresses T1, ALK5 kinase (Homo sapiens, UniProt P36897).
T1 sequence (P36897 34-503): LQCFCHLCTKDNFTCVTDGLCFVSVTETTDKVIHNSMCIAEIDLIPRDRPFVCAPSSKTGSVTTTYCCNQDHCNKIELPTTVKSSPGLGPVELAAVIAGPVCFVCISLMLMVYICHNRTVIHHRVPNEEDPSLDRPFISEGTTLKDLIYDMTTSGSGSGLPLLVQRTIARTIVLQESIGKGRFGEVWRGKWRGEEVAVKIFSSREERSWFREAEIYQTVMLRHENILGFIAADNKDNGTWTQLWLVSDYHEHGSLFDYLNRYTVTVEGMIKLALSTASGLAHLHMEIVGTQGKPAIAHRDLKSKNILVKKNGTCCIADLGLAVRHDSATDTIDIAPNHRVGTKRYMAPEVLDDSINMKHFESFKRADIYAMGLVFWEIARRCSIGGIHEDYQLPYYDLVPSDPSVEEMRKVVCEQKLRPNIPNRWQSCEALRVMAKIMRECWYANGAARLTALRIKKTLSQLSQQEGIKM
Nature of the assay: LanthaScreen Eu Kinase Binding Assay. The following applies: Kinase Tracer 178, Eu-anti-GST Antibody, read-out: IC50 Enzyme. In short, it runs like this: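 Compound (1% DMSO final) preincubated 30 min at RT with GST-tagged ALK5, then Eu-anti-GST antibody and Kinase Tracer 178 added for 60 min at RT. TR-FRET read at 340 nm excitation; 665/615 nm emission ratio falls as compound binding rises.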
Background: TR-FRET usually uses a lanthanide donor and a delayed reading to cut background.

Another assay deals with TGF-β signaling. In words: Assay for evaluating cellular inhibition of TGF-β signaling, 4T1 (SBE-luc2P) luciferase reporter. In kind it is cell-based. The following applies: Mus musculus, 4T1, 4T1 (SBE-luc2P) transient pool, 0.2% FBS, 2 h pre-treatment, TGF-β1 2 ng/mL 24 h; read-out: IC50 4T1 Cell. Put shortly:
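4T1 cells transiently carrying SBE-luc2P (6×10^3/well, 0.2% FBS, ~60% confluence) or HEK293 SBE-reporter stable cells (2.5×10^4/well, 0.5% FBS, ~80% confluence) pre-treated with compound for 2 h. TGF-β1 (2 ng/mL) then added for 24 h at 37 °C; luciferase luminescence read from lysates.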
Background: Reporter assays use an easily measured gene product as a stand-in for the process of interest.

Regarding `CNc1nc(-c2cccc(C)n2)c(Oc2ccnc(Nc3cccc(S(N)(=O)=O)c3)c2)s1` [A-292, 3-((4-((2-(Methylamino)-4-(6-methylpyridin-2-yl)thiazol-5-yl)oxy)pyridin-2-yl)amino)benzenesulfonamide], the IC50 on ALK5 kinase and with TGF-β signaling was < 100 nM each time.

On to `CNc1nc(-c2ccccc2)c(Oc2ccnc(Nc3cccc(C(N)=O)c3)c2)s1` [A-52, 3-((4-((2-(Methylamino)-4-phenylthiazol-5-yl)oxy)pyridin-2-yl)amino)benzamide], for which the results for the IC50 at ALK5 kinase and in the assay on TGF-β signaling were < 100 nM and > 100 nM, respectively.

With `CNC(=O)c1ccc(Nc2cc(Oc3sc(C(C)C)nc3-c3ccccc3)ccn2)cc1` [A-229, 4-((4-((2-Isopropyl-4-phenylthiazol-5-yl)oxy)pyridin-2-yl)amino)-N-methylbenzamide], the results for the IC50 at ALK5 kinase and in the assay on TGF-β signaling were < 100 nM and > 100 nM, respectively.

In the case of `CNc1nc(-c2ccccc2)c(Oc2ccnc(Nc3cccc(S(N)(=O)=O)c3)c2)s1` [A-51, 3-((4-((2-(Methylamino)-4-phenylthiazol-5-yl)oxy)pyridin-2-yl)amino)benzenesulfonamide], the IC50 on ALK5 kinase and in the assay on TGF-β signaling was < 100 nM each time.

Regarding `CCc1nc(-c2ccccc2)c(Oc2ccnc(Nc3ccc(C(=O)NC)cn3)c2)s1` [A-193, 6-((4-((2-Ethyl-4-phenylthiazol-5-yl)oxy)pyridin-2-yl)amino)-N-methylnicotinamide], the IC50 at ALK5 kinase and with TGF-β signaling was < 100 nM throughout.

Regarding `CC(C)c1nc(-c2ccccc2)c(Oc2ccnc(Nc3ccc(C(N)=O)cc3)c2)s1` [A-222, 4-((4-((2-Isopropyl-4-phenylthiazol-5-yl)oxy)pyridin-2-yl)amino)benzamide], the IC50 at ALK5 kinase and with TGF-β signaling was > 100 nM in each case.

Regarding `NC(=O)c1cccc(Nc2cc(Oc3sc(N)nc3-c3ccccc3)ccn2)c1` [A-2, 3-((4-((2-Amino-4-phenylthiazol-5-yl)oxy)pyridin-2-yl)amino)benzamide], the IC50 on ALK5 kinase and in the assay with TGF-β signaling was < 100 nM in each case.

As for `Cc1nc(-c2ccccc2)c(Oc2ccnc(Nc3ccc(C(=O)O)cc3)c2)s1` [A-110, 4-((4-((2-Methyl-4-phenylthiazol-5-yl)oxy)pyridin-2-yl)amino)benzoic acid], the IC50 at ALK5 kinase was < 100 nM; with TGF-β signaling, > 100 nM.

As to `CC(C)c1nc(-c2ccccc2)c(Oc2ccnc(Nc3cccc(C(N)=O)n3)c2)s1` [A-226, 6-((4-((2-Isopropyl-4-phenylthiazol-5-yl)oxy)pyridin-2-yl)amino)picolinamide], the IC50 at ALK5 kinase is < 100 nM; with TGF-β signaling it was > 100 nM.

`Cc1nc(-c2ccccc2)c(Oc2ccnc(Nc3cccc(S(=O)(=O)C(F)(F)F)c3)c2)s1` [A-72, 4-((2-Methyl-4-phenylthiazol-5-yl)oxy)-N-(3-((trifluoromethyl)sulfonyl)phenyl)pyridin-2-amine]: the IC50 on ALK5 kinase and in the assay with TGF-β signaling was > 100 nM in each case.

Regarding `Cc1nc(-c2ccccc2)c(Oc2ccnc(Nc3cccc(C(N)=O)c3)c2)s1` [A-60, 3-((4-((2-Methyl-4-phenylthiazol-5-yl)oxy)pyridin-2-yl)amino)benzamide], the IC50 on ALK5 kinase and with TGF-β signaling was < 100 nM each time.

Consider `Cc1cccc(-c2nc(C)sc2Oc2ccnc(Nc3cccc(C(C)(C)C(=O)O)c3)c2)n1` [A-309, 2-Methyl-2-(3-((4-((2-methyl-4-(6-methylpyridin-2-yl)thiazol-5-yl)oxy)pyridin-2-yl)amino)phenyl)propanoic acid], for which the IC50 on ALK5 kinase and with TGF-β signaling was < 100 nM each time.

Consider `NC(=O)c1ccc(Nc2cc(Oc3sc(C4CCCCC4)nc3-c3ccccc3)ccn2)nc1` [A-177, 6-((4-((2-Cyclohexyl-4-phenylthiazol-5-yl)oxy)pyridin-2-yl)amino)nicotinamide], for which the IC50 at ALK5 kinase and with TGF-β signaling was > 100 nM in each case.
